Activity calls are given as the source filed them. The calls are words filed in the database; no cut-off is given here.
Assays:
Homo sapiens = species on record: Homo sapiens; experiment: Selectivity ratio of Ki for human D2 receptor transfected in HEK293 cell membrane to Ki for human D3 receptor transfected in HEK293 cell membrane; format: cell-based
D(2) dopamine receptor = D(2) dopamine receptor (Homo sapiens, UniProt P14416); experiment: Displacement of [3H]spiperone from human D2 receptor transfected in HEK293 cell membrane measured after 50 mins by competitive radioligand binding analysis; format: cell membranes
Mus musculus [1] = experiment: Anti-addiction activity in naloxone-induced withdrawal symptoms in morphine-dependent mouse model assessed as inhibition of naloxone-induced body weight loss at 50 mg/kg, ip administered 60 mins prior to naloxone injection and measured after 2 hrs of naloxone injection; format: functional, organism-based; settings: time 3.0 hrs
Mus musculus [2] = experiment: Anti-addiction activity in naloxone-induced withdrawal symptoms in morphine-dependent mouse model assessed as inhibition of naloxone-induced jumping response at 50 mg/kg, ip administered 60 mins prior to naloxone injection and measured for 30 mins after naloxone injection; format: functional, organism-based; settings: time 90.0 min
D(3) dopamine receptor = D(3) dopamine receptor (Homo sapiens, UniProt P35462); experiment: Displacement of [3H]spiperone from human D3 receptor transfected in HEK293 cell membrane measured after 50 mins by competitive radioligand binding analysis; format: cell membranes
Mus musculus [3] = experiment: Anti-addiction activity in naloxone-induced withdrawal symptoms in morphine-dependent mouse model assessed as reduction in diarrhea frequency at 50 mg/kg, ip administered 60 mins prior to naloxone injection and measured for 30 mins after naloxone injection; format: functional, organism-based; settings: time 90.0 min
Mus musculus [4] = experiment: Anti-addiction activity in naloxone-induced withdrawal symptoms in morphine-dependent mouse model assessed as reduction in amount of diarrhea at 50 mg/kg, ip administered 60 mins prior to naloxone injection and measured for 30 mins after naloxone injection; format: functional, organism-based; settings: time 90.0 min
[5] = Toxicity in naloxone-induced withdrawal symptoms in morphine-dependent mouse model assessed as convulsions at 50 mg/kg, ip administered 60 mins prior to naloxone injection; format: organism-based; settings: in vivo, 1 h
[6] = Toxicity in naloxone-induced withdrawal symptoms in morphine-dependent mouse model assessed as inability to bounce at 50 mg/kg, ip administered 60 mins prior to naloxone injection; format: organism-based; settings: in vivo, 1 h
[7] = Toxicity in naloxone-induced withdrawal symptoms in morphine-dependent mouse model assessed as slow crawling at 50 mg/kg, ip administered 60 mins prior to naloxone injection; format: organism-based; settings: in vivo, 1 h

D(3) dopamine receptor, sequence (P35462 whole entry): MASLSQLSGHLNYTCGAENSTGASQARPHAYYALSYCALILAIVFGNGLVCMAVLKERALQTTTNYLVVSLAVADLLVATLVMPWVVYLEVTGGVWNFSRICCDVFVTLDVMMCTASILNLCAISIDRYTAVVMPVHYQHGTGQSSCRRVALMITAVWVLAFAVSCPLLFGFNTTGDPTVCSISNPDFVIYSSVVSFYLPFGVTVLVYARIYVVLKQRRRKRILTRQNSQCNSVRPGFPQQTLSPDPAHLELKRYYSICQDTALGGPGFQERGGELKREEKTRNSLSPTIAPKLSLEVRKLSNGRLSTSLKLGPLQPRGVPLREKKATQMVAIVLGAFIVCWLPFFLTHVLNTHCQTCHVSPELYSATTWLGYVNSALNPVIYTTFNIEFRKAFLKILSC
D(2) dopamine receptor, sequence (P14416 whole entry): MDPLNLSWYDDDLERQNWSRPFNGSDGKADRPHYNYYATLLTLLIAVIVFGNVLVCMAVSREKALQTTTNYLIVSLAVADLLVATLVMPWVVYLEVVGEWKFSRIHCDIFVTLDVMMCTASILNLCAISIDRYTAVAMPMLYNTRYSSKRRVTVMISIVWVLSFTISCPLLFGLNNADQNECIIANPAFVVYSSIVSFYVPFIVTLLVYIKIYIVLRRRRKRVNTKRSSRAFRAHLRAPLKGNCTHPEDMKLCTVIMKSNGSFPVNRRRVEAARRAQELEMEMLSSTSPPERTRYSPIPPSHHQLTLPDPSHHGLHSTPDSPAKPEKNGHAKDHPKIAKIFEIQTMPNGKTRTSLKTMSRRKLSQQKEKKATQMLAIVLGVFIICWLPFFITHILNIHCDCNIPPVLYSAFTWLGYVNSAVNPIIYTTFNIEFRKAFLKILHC

SMILES | Ratio Ki (Homo sapiens) | Ki (D(2) dopamine receptor) [nM] | Activity (Mus musculus [1]) | Activity (Mus musculus [2]) | Ki (D(3) dopamine receptor) [nM] | Activity (Mus musculus [3]) | Activity (Mus musculus [4]) | Activity [5] | Activity [6] | Activity [7]
O=C(NCCCCN1CCO[C@@H]2c3ccccc3OC[C@H]21)c1ccccc1 (racemic) | 11 | 776 | Active | Active | 72 | – | – | – | – | –
O=C(NCCCCN1CCO[C@@H]2c3ccccc3OC[C@@H]21)c1ccc(Cl)cc1 (racemic) | – | – | Active | – | > 1000 | Active | – | – | – | –
COc1ccc2c(c1)[C@H]1OCCN(CCCCNC(=O)c3ccco3)[C@@H]1CO2 (racemic) | 177 | 923 | inactive | Active | 5.2 | – | – | – | – | –
COc1ccc2c(c1)[C@H]1OCCN(CCCCNC(=O)c3cccc(Cl)c3)[C@@H]1CO2 (racemic) | 30 | 785 | inactive | Active | 26.6 | – | – | – | – | –
COc1ccc2c(c1)[C@H]1OCCN(CCCCNC(=O)c3cc4ccccc4[nH]3)[C@@H]1CO2 (racemic) | 755 | 732 | Active | – | 0.97 | – | Active | – | – | –
COc1ccc(C(=O)NCCCCN2CCO[C@@H]3c4cc(OC)ccc4OC[C@H]32)cc1 (racemic) | 645 | 697 | Active | Active | 1.08 | – | Active | – | – | –
COc1ccc2c(c1)[C@H]1OCCN(CCCCNC(=O)c3ccccc3)[C@@H]1CO2 (racemic) | 41 | 568 | Active | – | 13.8 | Active | – | – | – | –
O=C(NCCCCN1CCO[C@@H]2c3ccccc3OC[C@H]21)c1ccc2ccccc2c1 (racemic) | 53 | 723 | Active | – | 13.7 | – | Active | – | – | –
O=C(NCCCCN1CCO[C@@H]2c3ccccc3OC[C@H]21)c1cc2ccccc2[nH]1 (racemic) | 75 | 785 | Active | Active | 10.5 | – | – | – | – | –
COc1ccc(C(=O)NCCCCN2CCO[C@@H]3c4ccccc4OC[C@H]32)cc1 (racemic) | 76 | 568 | Active | Active | 7.5 | Active | – | – | – | –
COc1cc(C(=O)NCCCCN2CCO[C@@H]3c4ccccc4OC[C@H]32)cc(OC)c1OC (racemic) | 104 | 708 | inactive | – | 6.8 | – | – | – | – | –
COc1ccc2c(c1)[C@H]1OCCN(CCCCNC(=O)C3CCCCC3)[C@@H]1CO2 (racemic) | 21 | 688 | Active | Active | 33.6 | – | Active | – | – | –
COc1ccc2c(c1)[C@H]1OCCN(CCCCNC(=O)c3cc(OC)c(OC)c(OC)c3)[C@@H]1CO2 (racemic) | 782 | 962 | – | – | 1.23 | – | – | Toxic | Toxic | Toxic
COc1ccc2c(c1)[C@H]1OCCN(CCCCNC(=O)c3ccc(Br)cc3)[C@@H]1CO2 (racemic) | 111 | 958 | Active | – | 8.6 | – | – | – | – | –
CCCN1CCO[C@@H]2c3cc(O)ccc3OC[C@H]21 | 23 | 43 | – | – | 1.82 | – | – | – | – | –
O=C(NCCCCN1CCO[C@@H]2c3ccccc3OC[C@H]21)c1cccc2ccccc12 (racemic) | 36 | 563 | Active | Active | 15.8 | – | – | – | – | –

SMILES | Ratio Ki (Homo sapiens) | Ki (D(2) dopamine receptor) [nM] | Activity (Mus musculus [1]) | Activity (Mus musculus [2]) | Ki (D(3) dopamine receptor) [nM] | Activity (Mus musculus [3]) | Activity (Mus musculus [4]) | Activity [5] | Activity [6] | Activity [7]
O=C(NCCCCN1CCO[C@@H]2c3ccccc3OC[C@@H]21)c1ccc(-c2ccccc2)cc1 (racemic) | – | – | inactive | – | > 1000 | – | – | – | – | –
COc1ccc2c(c1)[C@H]1OCCN(CCCCNC(=O)c3cccc4ccccc34)[C@@H]1CO2 (racemic) | 43 | 861 | Active | – | 19.8 | – | Active | – | – | –
COc1ccc2c(c1)[C@H]1OCCN(CCCCNC(=O)c3cccnc3)[C@@H]1CO2 (racemic) | 81 | 744 | – | – | 9.16 | – | – | Toxic | Toxic | Toxic
COc1ccc2c(c1)[C@H]1OCCN(CCCCNC(=O)c3ccc(-c4ccccc4)cc3)[C@@H]1CO2 (racemic) | 58 | 1060 | Active | – | 18.4 | – | – | – | – | –
COc1ccccc1C(=O)NCCCCN1CCO[C@@H]2c3ccccc3OC[C@H]21 (racemic) | 67 | 863 | – | – | 12.9 | – | – | – | – | –
O=C(NCCCCN1CCO[C@@H]2c3ccccc3OC[C@H]21)c1cccc(Cl)c1 (racemic) | 28 | 663 | Active | – | 23.6 | Active | – | – | – | –
O=C(NCCCCN1CCO[C@@H]2c3ccccc3OC[C@H]21)c1ccc(Br)cc1 (racemic) | 66 | 897 | inactive | – | 13.5 | – | – | – | – | –
O=C(NCCCCN1CCO[C@@H]2c3ccccc3OC[C@H]21)C1CCCCC1 (racemic) | 11 | 728 | Active | Active | 63.8 | – | – | – | – | –
O=C(NCCCCN1CCO[C@@H]2c3ccccc3OC[C@H]21)c1ccc([N+](=O)[O-])cc1 (racemic) | 28 | 962 | Active | Active | 33.9 | Active | – | – | – | –
O=C(NCCCCN1CCO[C@@H]2c3ccccc3OC[C@H]21)c1ccc(Cl)cc1 (racemic) | 27 | 473 | Active | – | 17.8 | – | Active | – | – | –
O=C(NCCCCN1CCO[C@@H]2c3ccccc3OC[C@@H]21)c1cccs1 (racemic) | – | – | inactive | – | > 1000 | – | – | – | – | –
COc1ccc2c(c1)[C@H]1OCCN(CCCCNC(=O)c3ccc([N+](=O)[O-])cc3)[C@@H]1CO2 (racemic) | 42 | 589 | Active | Active | 13.9 | – | – | – | – | –
O=C(NCCCCN1CCO[C@@H]2c3ccccc3OC[C@H]21)c1cccs1 (racemic) | 23 | 417 | Active | – | 18.5 | Active | – | – | – | –
COc1ccc2c(c1)[C@H]1OCCN(CCCCNC(=O)c3ccc4ccccc4c3)[C@@H]1CO2 (racemic) | 32 | 642 | Active | – | 19.9 | – | – | – | – | –
O=C(NCCCCN1CCO[C@@H]2c3ccccc3OC[C@H]21)c1ccc(-c2ccccc2)cc1 (racemic) | 23 | 1020 | Active | Active | 43.8 | – | – | – | – | –
